System: S. aureus ATCC 29123
Assay: Thigh infection model in neutropenic mice
Assay type: in vivo, female CD-1 mice
Conditions: thigh muscle, 10 mg/kg IV BID (2 and 8 h post-infection), 24 hr post infection
Protocol: The antimicrobial activity of compounds 23 and 60 against S. aureus ATCC 29123 was tested in vivo using a thigh infection model in neutropenic mice. Briefly, animals (female CD-1 mice, 5 weeks of age) were made neutropenic prior to S. aureus thigh infection by pre-treating with cyclophosphamide (150 mg/kg, IP, −4 and −1 days pre-inoculation). On the inoculation day (day 0), mice were infected with S. aureus at time zero (t=0). Animals were individually monitored for adverse reactions for 30 min post-infection.
Compounds 23 and 60 were prepared for IV administration and for oral administration. Vancomycin was administered as a solution in PBS. The test compounds were administered at 2 and 8 hours post-infection and animals were individually monitored for adverse reactions for 30 min after each injection. All animals were then monitored hourly from 20 hours post infection to the endpoint (t=24 hr post infection). At the indicated timepoint, animals were sacrificed and the injected thigh collected.
Quantitative enumeration of bacterial load was determined by plating serial dilutions from homogenized thigh muscles. The plates were incubated and colony counts were determined. CFU per mL calculated was calculated.

SMILES: CN(C)CCOC(=O)c1c(/C=C/c2ccc(Cl)cc2)[nH]c2cc(Br)ccc12 [Compound 60, (E)-2-(Dimethylamino)ethyl 6-bromo-2-(4-chlorostyryl)-1H-indole-3-carboxylate]
- reduction in CFU: 3 log

— patent US20180312493A1, “Antibiotic Compounds, Pharmaceutical Formulations Thereof And Methods And Uses Therefor” (Simon Fraser University, priority 2015, published 2018)
